In PubChem BioAssay (NCI):
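Compound exposure: 48 hours, 5 concentrations, 96-well plates. GI50 marks 50% less growth. TGI: concentration producing complete growth inhibition.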

Experiments:
Test in all cases: NCI tumour cell line growth inhibition, 48 h
CCRF-CEM leukemia = system: CCRF-CEM leukemia
M14 melanoma = system: M14 melanoma
NCI/ADR-RES ovarian = system: NCI/ADR-RES ovarian
HOP-62 NSCLC = system: HOP-62 NSCLC
A549 NSCLC = system: A549 NSCLC
UACC-62 melanoma = system: UACC-62 melanoma
PC-3 prostate = system: PC-3 prostate
DU-145 prostate = system: DU-145 prostate
MALME-3M melanoma = system: MALME-3M melanoma
SK-MEL-2 melanoma = system: SK-MEL-2 melanoma
KM12 colon = system: KM12 colon
UACC-257 melanoma = system: UACC-257 melanoma
CAKI-1 renal = system: CAKI-1 renal
SK-OV-3 ovarian = system: SK-OV-3 ovarian
ACHN renal = system: ACHN renal
MDA-N = system: MDA-N
OVCAR-4 ovarian = system: OVCAR-4 ovarian
SK-MEL-5 melanoma = system: SK-MEL-5 melanoma
SK-MEL-28 melanoma = system: SK-MEL-28 melanoma
SF-268 CNS = system: SF-268 CNS
OVCAR-5 ovarian = system: OVCAR-5 ovarian
SF-539 CNS = system: SF-539 CNS
A498 renal = system: A498 renal
OVCAR-3 ovarian = system: OVCAR-3 ovarian
HCT-15 colon = system: HCT-15 colon
HT29 colon = system: HT29 colon
HCT-116 colon = system: HCT-116 colon
RXF 393 renal = system: RXF 393 renal
NCI-H23 lung = system: NCI-H23 lung
SN12C renal = system: SN12C renal
RPMI-8226 leukemia = system: RPMI-8226 leukemia
HOP-92 NSCLC = system: HOP-92 NSCLC
HS 578T breast = system: HS 578T breast
MOLT-4 leukemia = system: MOLT-4 leukemia
SNB-19 CNS = system: SNB-19 CNS
SF-295 CNS = system: SF-295 CNS
NCI-H522 lung = system: NCI-H522 lung
NCI-H460 lung = system: NCI-H460 lung
SNB-75 CNS = system: SNB-75 CNS
MDA-MB-435 = system: MDA-MB-435
OVCAR-8 ovarian = system: OVCAR-8 ovarian
MCF7 breast = system: MCF7 breast
IGROV1 ovarian = system: IGROV1 ovarian
786-0 renal = system: 786-0 renal
COLO 205 colon = system: COLO 205 colon
LOX IMVI melanoma = system: LOX IMVI melanoma
SR leukemia = system: SR leukemia
HCC-2998 colon = system: HCC-2998 colon
UO-31 renal = system: UO-31 renal
SW-620 colon = system: SW-620 colon
BT-549 breast = system: BT-549 breast
NCI-H226 lung = system: NCI-H226 lung
T-47D breast = system: T-47D breast
MDA-MB-231 breast = system: MDA-MB-231 breast
EKVX NSCLC = system: EKVX NSCLC
K-562 leukemia = system: K-562 leukemia
HL-60(TB) leukemia = system: HL-60(TB) leukemia
TK-10 renal = system: TK-10 renal
U251 CNS = system: U251 CNS
HOP-18 NSCLC = system: HOP-18 NSCLC
M19-MEL melanoma = system: M19-MEL melanoma
DMS 114 small cell lung = system: DMS 114 small cell lung
DLD-1 colon = system: DLD-1 colon
KM20L2 colon = system: KM20L2 colon
DMS 273 small cell lung = system: DMS 273 small cell lung
LXFL 529 NSCLC = system: LXFL 529 NSCLC
SNB-78 CNS = system: SNB-78 CNS

## Nc1ccccc1O.O.O=C(O)C1[O][Sb][O]C1C(=O)O (stereo not given)
CCRF-CEM leukemia
  GI50: 0.713 µM
M14 melanoma
  GI50: 11.5 µM
  TGI: 25.9 µM
NCI/ADR-RES ovarian
  GI50: 28.6 µM
  TGI: > 87.2 µM
HOP-62 NSCLC
  GI50: 17.6 µM
  TGI: 35 µM
A549 NSCLC
  GI50: 54.7 µM
  TGI: > 100 µM
UACC-62 melanoma
  GI50: 15.1 µM
  TGI: 30.3 µM
PC-3 prostate
  GI50: 25.8 µM
  TGI: > 100 µM
DU-145 prostate
  GI50: 14.6 µM
  TGI: 27.8 µM
MALME-3M melanoma
  GI50: 1.65 µM
  TGI: 4.97 µM
SK-MEL-2 melanoma
  GI50: 15 µM
  TGI: 32.1 µM
KM12 colon
  GI50: > 66.2 µM
  TGI: > 100 µM
UACC-257 melanoma
  GI50: 14.1 µM
  TGI: 28 µM
CAKI-1 renal
  GI50: 3.78 µM
  TGI: 12.3 µM
SK-OV-3 ovarian
  GI50: 88.3 µM
  TGI: > 100 µM
ACHN renal
  GI50: 16.1 µM
  TGI: 29.8 µM
MDA-N
  GI50: 17.4 µM
  TGI: 42.2 µM
OVCAR-4 ovarian
  GI50: 16 µM
  TGI: 30.6 µM
SK-MEL-5 melanoma
  GI50: 1.77 µM
  TGI: 3.99 µM
SK-MEL-28 melanoma
  GI50: 10.2 µM
  TGI: 24.6 µM
SF-268 CNS
  GI50: 17.5 µM
  TGI: > 53.4 µM
OVCAR-5 ovarian
  GI50: 18.4 µM
  TGI: 38.5 µM
SF-539 CNS
  GI50: 17.9 µM
  TGI: 37.4 µM
A498 renal
  GI50: > 90.3 µM
  TGI: > 100 µM
OVCAR-3 ovarian
  GI50: 13.4 µM
  TGI: 28.6 µM
HCT-15 colon
  GI50: 19.9 µM
  TGI: 57.1 µM
HT29 colon
  GI50: 16.4 µM
  TGI: > 56.2 µM
HCT-116 colon
  GI50: 17.8 µM
  TGI: 39.6 µM
RXF 393 renal
  GI50: 6.35 µM
  TGI: 16.7 µM
NCI-H23 lung
  GI50: 17.6 µM
  TGI: 44.2 µM
SN12C renal
  GI50: 7.7 µM
  TGI: 21.3 µM
RPMI-8226 leukemia
  GI50: 1.51 µM
  TGI: 6.56 µM
HOP-92 NSCLC
  GI50: 21 µM
  TGI: 40.2 µM
HS 578T breast
  GI50: 9.07 µM
  TGI: 46.2 µM
MOLT-4 leukemia
  GI50: 10.8 µM
  TGI: > 100 µM
SNB-19 CNS
  GI50: 55.5 µM
  TGI: > 100 µM
SF-295 CNS
  GI50: 39.9 µM
  TGI: > 100 µM
NCI-H522 lung
  GI50: 2.17 µM
  TGI: 6.24 µM
NCI-H460 lung
  GI50: 21.6 µM
  TGI: 58.5 µM
SNB-75 CNS
  GI50: 24.9 µM
  TGI: 40.5 µM
MDA-MB-435
  GI50: 16.5 µM
  TGI: 30.8 µM
OVCAR-8 ovarian
  GI50: 14.9 µM
  TGI: 32.9 µM
MCF7 breast
  GI50: 12.6 µM
  TGI: 37.7 µM
IGROV1 ovarian
  GI50: 17.6 µM
  TGI: 33.2 µM
786-0 renal
  GI50: 10.5 µM
  TGI: 26 µM
COLO 205 colon
  GI50: 18.7 µM
  TGI: 35.3 µM
LOX IMVI melanoma
  GI50: 8.59 µM
  TGI: 29.9 µM
SR leukemia
  GI50: 2.42 µM
  TGI: 50.6 µM
HCC-2998 colon
  GI50: 17.9 µM
  TGI: 47.7 µM
UO-31 renal
  GI50: 9.34 µM
  TGI: 24.5 µM
SW-620 colon
  GI50: 4.48 µM
  TGI: 31.2 µM
BT-549 breast
  GI50: 14.9 µM
  TGI: 30.6 µM
NCI-H226 lung
  GI50: > 100 µM
  TGI: > 100 µM
T-47D breast
  GI50: 12.2 µM
  TGI: 34 µM
MDA-MB-231 breast
  GI50: 23.6 µM
  TGI: > 71.7 µM
EKVX NSCLC
  GI50: 18.1 µM
  TGI: 38.9 µM
K-562 leukemia
  GI50: 3.77 µM
  TGI: > 36.1 µM
HL-60(TB) leukemia
  GI50: 1.86 µM
  TGI: 10.6 µM
TK-10 renal
  GI50: 18 µM
  TGI: 32.4 µM
U251 CNS
  GI50: 13.8 µM
  TGI: 27.8 µM

## CC(=O)N1CCN(c2ccc(OCC3COC(Cn4ccnc4)(c4ccc(Cl)cc4Cl)O3)cc2)CC1 (stereo not given)
CCRF-CEM leukemia
  TGI: > 100 µM
M14 melanoma
  TGI: 52.1 µM
HOP-62 NSCLC
  TGI: > 100 µM
A549 NSCLC
  TGI: > 100 µM
UACC-62 melanoma
  TGI: 38 µM
MALME-3M melanoma
  TGI: > 100 µM
SK-MEL-2 melanoma
  TGI: 39.1 µM
HOP-18 NSCLC
  TGI: > 100 µM
KM12 colon
  TGI: > 100 µM
UACC-257 melanoma
  TGI: 51.1 µM
CAKI-1 renal
  TGI: > 100 µM
SK-OV-3 ovarian
  TGI: > 100 µM
ACHN renal
  TGI: > 100 µM
M19-MEL melanoma
  TGI: 45.1 µM
OVCAR-4 ovarian
  TGI: > 100 µM
SK-MEL-5 melanoma
  TGI: 24.9 µM
SK-MEL-28 melanoma
  TGI: > 100 µM
DMS 114 small cell lung
  TGI: 43.7 µM
OVCAR-5 ovarian
  TGI: > 100 µM
DLD-1 colon
  TGI: > 100 µM
KM20L2 colon
  TGI: > 100 µM
A498 renal
  TGI: > 100 µM
OVCAR-3 ovarian
  TGI: > 100 µM
HCT-15 colon
  TGI: > 100 µM
HT29 colon
  TGI: 43.9 µM
HCT-116 colon
  TGI: 76.6 µM
RXF 393 renal
  TGI: 57.8 µM
DMS 273 small cell lung
  TGI: 61.4 µM
SN12C renal
  TGI: > 100 µM
RPMI-8226 leukemia
  TGI: > 100 µM
HOP-92 NSCLC
  TGI: > 100 µM
MOLT-4 leukemia
  TGI: > 100 µM
NCI-H522 lung
  TGI: 99.7 µM
LXFL 529 NSCLC
  TGI: > 100 µM
NCI-H460 lung
  TGI: > 100 µM
OVCAR-8 ovarian
  TGI: > 100 µM
IGROV1 ovarian
  TGI: > 100 µM
786-0 renal
  TGI: > 100 µM
COLO 205 colon
  TGI: 40.8 µM
LOX IMVI melanoma
  TGI: 36 µM
SR leukemia
  TGI: 66.5 µM
HCC-2998 colon
  TGI: > 100 µM
UO-31 renal
  TGI: 91.9 µM
SW-620 colon
  TGI: > 100 µM
NCI-H226 lung
  TGI: 73.6 µM
K-562 leukemia
  TGI: > 100 µM
HL-60(TB) leukemia
  TGI: > 100 µM
TK-10 renal
  TGI: 99.9 µM

## CCOC(=O)NC(=O)c1cn(C(CC)COC(=O)NCCCCCCNC(=O)OCC(CC)n2cc(C(=O)NC(=O)OCC)c(=O)[nH]c2=O)c(=O)[nH]c1=O (stereo not given)
CCRF-CEM leukemia
  TGI: > 100 µM
M14 melanoma
  TGI: > 100 µM
HOP-62 NSCLC
  TGI: > 100 µM
A549 NSCLC
  TGI: > 100 µM
UACC-62 melanoma
  TGI: > 100 µM
MALME-3M melanoma
  TGI: > 100 µM
SK-MEL-2 melanoma
  TGI: > 100 µM
HOP-18 NSCLC
  TGI: > 100 µM
KM12 colon
  TGI: > 100 µM
UACC-257 melanoma
  TGI: > 100 µM
CAKI-1 renal
  TGI: > 100 µM
SK-OV-3 ovarian
  TGI: > 100 µM
ACHN renal
  TGI: > 100 µM
M19-MEL melanoma
  TGI: > 100 µM
OVCAR-4 ovarian
  TGI: > 100 µM
SK-MEL-5 melanoma
  TGI: > 100 µM
SK-MEL-28 melanoma
  TGI: > 100 µM
DMS 114 small cell lung
  TGI: > 100 µM
SF-268 CNS
  TGI: > 100 µM
KM20L2 colon
  TGI: > 100 µM
A498 renal
  TGI: > 100 µM
OVCAR-3 ovarian
  TGI: > 100 µM
HCT-15 colon
  TGI: > 100 µM
HT29 colon
  TGI: > 100 µM
HCT-116 colon
  TGI: > 100 µM
RXF 393 renal
  TGI: > 100 µM
DMS 273 small cell lung
  TGI: > 100 µM
SN12C renal
  TGI: > 100 µM
RPMI-8226 leukemia
  TGI: > 100 µM
SNB-78 CNS
  TGI: > 100 µM
MOLT-4 leukemia
  TGI: > 100 µM
SNB-19 CNS
  TGI: > 100 µM
SF-295 CNS
  TGI: > 100 µM
NCI-H522 lung
  TGI: > 100 µM
LXFL 529 NSCLC
  TGI: > 100 µM
NCI-H460 lung
  TGI: > 100 µM
SNB-75 CNS
  TGI: > 100 µM
OVCAR-8 ovarian
  TGI: > 100 µM
IGROV1 ovarian
  TGI: > 100 µM
786-0 renal
  TGI: > 100 µM
COLO 205 colon
  TGI: > 100 µM
LOX IMVI melanoma
  TGI: > 100 µM
HCC-2998 colon
  TGI: > 100 µM
UO-31 renal
  TGI: > 100 µM
SW-620 colon
  TGI: > 100 µM
NCI-H226 lung
  TGI: > 100 µM
EKVX NSCLC
  TGI: > 100 µM
K-562 leukemia
  TGI: > 100 µM
HL-60(TB) leukemia
  TGI: > 100 µM
U251 CNS
  TGI: > 100 µM
